Eleven molecules from DBAASP can be followed below.

≈ marks a conversion by molar mass, not a printed value.

Test systems include Streptococcus mutans; Escherichia coli K-12; Staphylococcus aureus; Escherichia coli BW25113.
Holding throughout (assay): ≥ marks a high value that may be exact or a test limit, other limits are often not marked, values filed in µg/mL are converted to µM
Assay [1] concerns Escherichia coli ATCC 11775.
Assay [2] concerns Staphylococcus aureus ATCC 12600.
In assay [3] the test system is Escherichia coli ATCC 25922.
The subject of assay [4] is Klebsiella pneumoniae ATCC 700603.
Assay [5] deals with Pseudomonas aeruginosa ATCC 27853.
The subject of assay [6] is Staphylococcus aureus ATCC 29213.
Assay [7] has as its system Staphylococcus aureus ATCC 33591.
The test system of assay [8] is Staphylococcus aureus ATCC 700699.
For assay [9], the system named is Staphylococcus aureus ATCC 25923.
The test system of assay [10] is Staphylococcus aureus ATCC 43300.
The test system of assay [11] is Enterococcus faecalis ATCC 29212.
For assay [12], the system named is Salmonella enterica subsp. enterica serovar Pullorum C79-13.
Assay [13] concerns Salmonella enterica subsp. enterica serovar Typhimurium C77-31.
For assay [14], the system named is Staphylococcus epidermidis ATCC 12228.

For `CC(C)C[C@H](NC(=O)[C@H](CCCN=C(N)N)NC(=O)[C@H](CCCCN)NC(=O)[C@H](C)N)C(=O)N[C@@H](CC(C)C)C(=O)N[C@@H](CCCCN)C(=O)N[C@H](C(=O)N[C@@H](CC(C)C)C(=O)N[C@@H](CCCCN)C(=O)N[C@@H](CCCN=C(N)N)C(=O)N[C@@H](Cc1ccccc1)C(N)=O)C(C)C` [AKRLLKVLKRF], the MIC against Streptococcus mutans amounted to 16.5 µM (≈ 22.6 µg/mL).

For `CC(C)C[C@H](NC(=O)[C@H](C)NC(=O)[C@H](CC(C)C)NC(=O)[C@@H]1CCCN1C(=O)[C@H](Cc1ccccc1)NC(=O)[C@@H](N)Cc1ccccc1)C(=O)N[C@@H](CC(C)C)C(=O)N[C@H]1CSSC[C@@H](C(=O)O)NC(=O)[C@H](CCCCN)NC(=O)[C@H](CCCCN)NC(=O)[C@H](Cc2ccccc2)NC(=O)[C@H](C(C)C)NC(=O)[C@H](CCCCN)NC1=O` [FFPLALLCKVFKKC], the MIC is 25 µM (≈ 41.4 µg/mL) in assay [1] and not below 100 µM in assay [2].

For the molecule `CC[C@H](C)[C@H](NC(=O)[C@H](CC(=O)O)NC(=O)[C@H](CCCCN)NC(=O)[C@H](C)NC(=O)[C@H](C)NC(=O)CNC(=O)[C@H](CCCCN)NC(=O)[C@H](CC(C)C)NC(=O)[C@@H](NC(=O)[C@H](CC(=O)O)NC(=O)[C@@H](NC(=O)[C@H](C)NC(=O)CN)C(C)C)[C@@H](C)CC)C(=O)N[C@@H](C)C(=O)NCC(=O)N[C@@H](Cc1cnc[nH]1)C(=O)N[C@@H](CC(C)C)C(=O)N[C@@H](C)C(=O)N[C@@H](CO)C(=O)N[C@@H](CCCCN)C(=O)N[C@H](C(=O)N[C@@H](CCSC)C(=O)N[C@@H](CC(N)=O)C(=O)N[C@@H](CCCCN)C(=O)N[C@@H](CC(C)C)C(N)=O)C(C)C` [GAVDILKGAAKDIAGHLASKVMNKL], the MIC is more than 100 µM in assay [3]; more than 100 µM in assay [4]; more than 100 µM in [5]; more than 100 µM in assay [6]; not below 100 µM in assay [7]; not below 100 µM in assay [8].

`CC[C@H](C)[C@H](NC(=O)[C@H](CC(=O)O)NC(=O)[C@H](CCCCN)NC(=O)[C@H](CC(C)C)NC(=O)[C@H](C)NC(=O)CNC(=O)[C@H](CCCCN)NC(=O)[C@H](CC(C)C)NC(=O)[C@@H](NC(=O)[C@H](CC(=O)O)NC(=O)[C@@H](NC(=O)[C@@H](NC(=O)CN)C(C)C)C(C)C)[C@@H](C)CC)C(=O)N[C@@H](C)C(=O)NCC(=O)N[C@@H](Cc1cnc[nH]1)C(=O)N[C@@H](CC(C)C)C(=O)N[C@@H](C)C(=O)N[C@@H](CO)C(=O)N[C@@H](CCCCN)C(=O)N[C@H](C(=O)N[C@@H](CCSC)C(=O)N[C@@H](CC(N)=O)C(=O)N[C@@H](CCCCN)C(=O)N[C@@H](CC(C)C)C(N)=O)C(C)C` [GVVDILKGALKDIAGHLASKVMNKL]: the MIC in [3] was 12.5 µM (≈ 32.4 µg/mL); in assay [4] it was 50 µM (≈ 130 µg/mL); in assay [5], 50 µM (≈ 130 µg/mL); in assay [6], 100 µM (≈ 259 µg/mL); in assay [7], 25 µM (≈ 64.8 µg/mL); in assay [8], not below 50 µM.

As to `CC[C@H](C)[C@H](N)C(=O)NCC(=O)N[C@@H](CCCCN)C(=O)N[C@@H](CCC(=O)O)C(=O)N[C@@H](Cc1ccccc1)C(=O)N[C@@H](CCCCN)C(=O)N[C@@H](CCCNC(=N)N)C(=O)N[C@H](C(=O)N[C@H](C(=O)N[C@@H](CCC(N)=O)C(=O)N[C@@H](CCCNC(=N)N)C(=O)N[C@H](C(=O)N[C@@H](CCCCN)C(=O)N[C@@H](CC(=O)O)C(=O)N[C@@H](Cc1ccccc1)C(=O)N[C@@H](CC(C)C)C(=O)N[C@@H](CCCNC(=N)N)C(=O)N[C@@H](CC(N)=O)C(=O)N[C@@H](CC(C)C)C(=O)N[C@H](C(=O)N1CCC[C@H]1C(=O)N[C@@H](CCCNC(=N)N)C(=O)N[C@H](C(=O)N[C@@H](CCC(=O)O)C(=O)N[C@H](C=O)CO)[C@@H](C)O)C(C)C)[C@@H](C)CC)C(C)C)[C@@H](C)CC` [IGKEFKRIVQRIKDFLRNLVPRTES], the MIC with Escherichia coli K-12 was not below 80 µM; in assay [9] it was 168 µM (≈ 509 µg/mL); in assay [10], 168 µM (≈ 509 µg/mL); in [8], not below 336 µM; in the assay on Staphylococcus aureus, 168 µM (≈ 509 µg/mL).

The molecule `CC[C@H](C)[C@H](NC(=O)[C@@H]1CCCN1C(=O)[C@H](CCCN=C(N)N)NC(=O)[C@H](CCCN=C(N)N)NC(=O)[C@H](Cc1ccccc1)NC(=O)[C@@H](N)CCCN=C(N)N)C(=O)N[C@@H](CCCN=C(N)N)C(=O)N[C@@H](CCCN=C(N)N)C(=O)N[C@@H](CCCN=C(N)N)C(=O)N1CCC[C@H]1C(=O)N[C@H](C(=O)N[C@@H](CCCN=C(N)N)C(=O)N1CCC[C@H]1C(=O)N1CCC[C@H]1C(=O)N[C@@H](Cc1ccccc1)C(=O)N[C@@H](Cc1c[nH]c2ccccc12)C(=O)N[C@@H](CCCN=C(N)N)C(=O)O)[C@@H](C)CC` [RFRRPIRRRPIRPPFWR] displayed an MIC against Escherichia coli BW25113 of 8 µM (≈ 18.9 µg/mL).

On to `NCCCC[C@H](NC(=O)[C@H](Cc1c[nH]c2ccccc12)NC(=O)[C@H](Cc1c[nH]c2ccccc12)NC(=O)[C@H](CCCCN)NC(=O)[C@@H](N)CCCN=C(N)N)C(N)=O` [RKWWK], for which the minimal inhibitory concentration (MIC) in assay [3] was more than 77.8 µM; in assay [2], not below 77.8 µM.

As for `CC[C@H](C)[C@H](NC(=O)[C@@H]1CCCN1C(=O)[C@H](CCCN=C(N)N)NC(=O)[C@H](CCCN=C(N)N)NC(=O)[C@H](Cc1c[nH]c2ccccc12)NC(=O)[C@@H](N)CCCN=C(N)N)C(=O)N[C@@H](CCCN=C(N)N)C(=O)N[C@@H](CCCN=C(N)N)C(=O)N[C@@H](CCCN=C(N)N)C(=O)N1CCC[C@H]1C(=O)N[C@H](C(=O)N[C@@H](CCCN=C(N)N)C(=O)N1CCC[C@H]1C(=O)N1CCC[C@H]1C(=O)N[C@@H](Cc1ccccc1)C(=O)N[C@@H](Cc1ccc(O)cc1)C(=O)N1CCC[C@H]1C(=O)O)[C@@H](C)CC` [RWRRPIRRRPIRPPFYP], the MIC against Escherichia coli BW25113 came out at 8 µM (≈ 18.6 µg/mL).

The molecule `CC[C@H](C)[C@H](NC(=O)[C@@H]1CCCN1C(=O)[C@H](Cc1c[nH]c2ccccc12)NC(=O)[C@H](CCCN=C(N)N)NC(=O)[C@H](Cc1c[nH]c2ccccc12)NC(=O)[C@@H](N)CCCN=C(N)N)C(=O)N[C@@H](CCCN=C(N)N)C(=O)N[C@@H](CCCN=C(N)N)C(=O)N[C@@H](CCCN=C(N)N)C(=O)N1CCC[C@H]1C(=O)N[C@H](C(=O)N[C@@H](CCCN=C(N)N)C(=O)N1CCC[C@H]1C(=O)N1CCC[C@H]1C(=O)N[C@@H](Cc1c[nH]c2ccccc12)C(=O)N[C@@H](Cc1ccc(O)cc1)C(=O)N[C@@H](CCCN=C(N)N)C(=O)O)[C@@H](C)CC` [RWRWPIRRRPIRPPWYR] showed a minimum inhibitory concentration (MIC) against Escherichia coli BW25113 of 4 µM (≈ 9.79 µg/mL).

For `NCCCC[C@H](NC(=O)CNC(=O)[C@H](CC(N)=O)NC(=O)[C@H](CCC(=O)O)NC(=O)[C@H](Cc1c[nH]c2ccccc12)NC(=O)[C@H](CCCCN)NC(=O)[C@H](Cc1c[nH]c2ccccc12)NC(=O)[C@H](CCCCN)NC(=O)[C@@H](N)Cc1c[nH]c2ccccc12)C(=O)N[C@@H](Cc1c[nH]c2ccccc12)C(=O)N[C@@H](CCCCN)C(=O)N[C@@H](Cc1c[nH]c2ccccc12)C(=O)N[C@@H](CCCCN)C(=O)N[C@@H](Cc1c[nH]c2ccccc12)C(=O)O` [WKWKWENGKWKWKW], the MIC in assay [11] is 64 µM (≈ 133 µg/mL); in [3], 2 µM (≈ 4.15 µg/mL); in assay [12], 8 µM (≈ 16.6 µg/mL); in assay [13], not below 32 µM; in assay [6], 32 µM (≈ 66.4 µg/mL); in assay [14], 32 µM (≈ 66.4 µg/mL).

On to `CC[C@H](C)[C@H](NC(=O)[C@H](Cc1ccccc1)NC(=O)[C@H](CS)NC(=O)[C@@H](NC(=O)[C@H](CO)NC(=O)[C@@H](N)Cc1ccc(O)cc1)[C@@H](C)O)C(=O)N[C@@H](CCSC)C(=O)NCC(=O)NCC(=O)NCC(=O)N[C@@H](Cc1c[nH]c2ccccc12)C(=O)N[C@@H](CCCCN)C(=O)N[C@@H](Cc1c[nH]c2ccccc12)C(=O)N[C@@H](CCCCN)C(=O)N[C@@H](Cc1c[nH]c2ccccc12)C(=O)N[C@@H](CCC(=O)O)C(=O)N[C@@H](CC(N)=O)C(=O)NCC(=O)N[C@@H](CCCCN)C(=O)N[C@@H](Cc1c[nH]c2ccccc12)C(=O)N[C@@H](CCCCN)C(=O)N[C@@H](Cc1c[nH]c2ccccc12)C(=O)N[C@@H](CCCCN)C(=O)N[C@@H](Cc1c[nH]c2ccccc12)C(=O)O` [YSTCFIMGGGWKWKWENGKWKWKW], for which the MIC was more than 128 µM in assay [11]; 32 µM (≈ 99 µg/mL) in assay [3]; not below 128 µM in assay [12]; not below 128 µM in assay [13]; more than 128 µM in assay [6]; more than 128 µM in [14].

The term MIC denotes the lowest concentration that inhibits growth of the organism. Low values mean inhibition by little substance, high ones a need for much substance.
